{"source": "paper PMC5638327", "about": "“Comparison of bioavailability and antiplatelet action of ticagrelor in patients with ST-elevation myocardial infarction and non-ST-elevation myocardial infarction: A prospective, observational, single-centre study” (PLoS ONE, 2017)", "key": {"[1]": {"tested_on": "platelet reactivity", "assay": "Platelet reactivity by the VASP assay after ticagrelor loading dose", "assay_type": "in vivo, human (patients with myocardial infarction)", "conditions": "median [interquartile range]; for time to achieve platelet inhibition below the cut-off value for HPR (VASP): HPR = platelet reactivity index >50%", "method": "(§1) Consecutive STEMI and NSTEMI patients admitted to the study site (Cardiology Department, Dr. A. Jurasz University Hospital, Bydgoszcz, Poland) were screened for eligibility. After admission to the study centre, confirmation of the initial diagnosis of STEMI or NSTEMI, and provision of a written informed consent to participate in the trial, all study participants received an oral 300 mg LD of plain aspirin (Polpharma SA, Starogard Gdański, Poland) and 180 mg LD ticagrelor in integral tablets with 250 mL tap water. Subsequently, within 15 minutes of ticagrelor LD, all patients underwent coronary angiography followed by PCI as required. During the periprocedural period, all study participants received unfractionated heparin in body weight adjusted dose according to the European Society of Cardiology (ESC) recommendations. Plasma concentrations of ticagrelor and its active metabolite, as well as their antiplatelet effect, were evaluated according to the sampling schedule employed at our centre in previous PK/PD study (pre-treatment, 0.5 h, 1 h, 2 h, 3 h, 4 h, 6 h and 12 h post ticagrelor LD).\n(§2) Blood samples for PK/PD evaluation were obtained from an 18-gauge cannula inserted into one of the forearm veins. The first 5 mL blood was discarded to avoid spontaneous platelet activation. In each patient specimens were collected at the eight pre-defined time. Detailed description of blood sample processing has been published in the study protocol (S1 File).\n(§3) Platelet reactivity was assessed using VASP and Multiplate. The VASP assay (Biocytex, Inc., Marseille, France) was used in all study participants, while Multiplate (Roche Diagnostics International Ltd., Rotkreuz, Switzerland) was used in all except in those treated with glycoprotein (GP) IIb/IIIa receptor inhibitors. Pharmacodynamic evaluation was performed according to the manufacturers' instructions. HPR was defined as platelet reactivity index >50% for the VASP assay and AUC >46 units (U) for Multiplate. […]\n(§4) Table 1 Inclusion and exclusion criteria of the PINPOINT study\n(§5) Inclusion criteria Exclusion criteria\n(§6) ▸ Provision of informed consent prior to any ▸ Treatment with ticlopidine, clopidogrel, prasugrel or ticagrelor within study-specific procedure 14 days before the study enrolment\n(§7) ▸ Diagnosis of STEMI or NSTEMI ▸ Hypersensitivity to ticagrelor\n(§8) ▸ Men or non-pregnant women ▸ Current treatment with oral anticoagulant or chronic therapy with low-molecular-weight heparin\n(§9) ▸ Provision of informed consent for angiography ▸ Active bleeding […]\n(§10) ▸ History of intracranial haemorrhage\n(§11) ▸ Fibrinolytic treatment during the index event\n(§12) ▸ Recent gastrointestinal bleeding (within 30 days)\n(§13) ▸ History of coagulation disorders\n(§14) ▸ History of moderate or severe hepatic impairment\n(§15) ▸ History of major surgery or severe trauma (within 3 months)\n(§16) ▸ Second or third degree atrioventricular block during screening for […]\n(§17) ▸ Patient requiring dialysis\n(§18) ▸ Manifest infection or inflammatory state\n(§19) ▸ Killip class III or IV during screening for eligibility\n(§20) ▸ Current therapy with strong CYP3A inhibitors or strong CYP3A […]\n(§21) NSTEMI, non-ST-elevation myocardial infarction; PCI, percutaneous coronary intervention; STEMI, ST-elevation myocardial infarction. […]\nAssessment of pharmacodynamics ticagrelor, β-blockers, statins and ACE inhibitors or angio-Platelet VASP assay (Biocytex, Marseille, France) will be tensin II receptor blockers, if not contraindicated. applied to all study participants at all predeﬁned time Morphine will be used at the discretion of the ambulance points. MEA (Roche Diagnostics International, Rotkreuz, staff and the attending physician. The type of implanted Switzerland) will be used at all predeﬁned time points stent and choice of the access site for coronary invasive ( ﬁgure 1) for all study participants with the exception of procedure (radial or femoral ) will be at the discretion of those treated with glycoprotein IIb/IIIa (GP IIb/IIIa) the operator. During the periprocedural period, all study […]"}, "[2]": {"tested_on": "platelet reactivity", "assay": "Platelet reactivity by Multiplate (multiple electrode aggregometry) after ticagrelor loading dose", "assay_type": "in vivo, human (patients with myocardial infarction)", "conditions": "median [interquartile range]; for time to achieve platelet inhibition below the cut-off value for HPR (Multiplate): HPR = AUC >46 U", "method": "as §1, §2, §3, §4, §5, §6, §7, §8, §9, §10, §11, §12, §13, §14, §15, §16, §17, §18, §19, §20, §21\nMEA (Roche Diagnostics International, Rotkreuz, staff and the attending physician. The type of implanted Switzerland) will be used at all predeﬁned time points stent and choice of the access site for coronary invasive ( ﬁgure 1) for all study participants with the exception of procedure (radial or femoral ) will be at the discretion of those treated with glycoprotein IIb/IIIa (GP IIb/IIIa) the operator. During the periprocedural period, all study receptor inhibitors as this therapy may affect the results participants will receive unfractionated heparin in body of platelet reactivity assessment per formed with MEA weight adjusted dose according to the ESC recommenda-( ﬁgure 2). Pharmacodynamic assessment with VASP and tions.2336Administration of GP IIb/IIIa receptor in- […]"}, "[3]": {"conditions": "NSTEMI, 0.5 h after 180 mg ticagrelor LD"}, "[4]": {"conditions": "STEMI, 0.5 h after 180 mg ticagrelor LD"}}}
{"molecule": "CCCSc1nc(N[C@@H]2C[C@H]2c2ccc(F)c(F)c2)c2nnn([C@@H]3C[C@H](OCCO)[C@@H](O)[C@H]3O)c2n1", "note": "[ticagrelor]", "values": [{"measurement": "Platelet reactivity (VASP)", "setting": "[1]; [3]", "value": "57.0 [30.2–89.4] %"}, {"measurement": "Platelet reactivity (VASP)", "setting": "[1]; NSTEMI, 1 h after 180 mg ticagrelor LD", "value": "40.8 [23.7–69.2] %"}, {"measurement": "Platelet reactivity (VASP)", "setting": "[1]; NSTEMI, 3 h after 180 mg ticagrelor LD", "value": "32.2 [14.7–38.7] %"}, {"measurement": "Platelet reactivity (VASP)", "setting": "[1]; NSTEMI, 4 h after 180 mg ticagrelor LD", "value": "21.1 [17.5–43.1] %"}, {"measurement": "time to achieve platelet inhibition below the cut-off value for HPR (VASP)", "setting": "[1]; NSTEMI", "value": "1.0 [0.5–2.0] h"}, {"measurement": "Platelet reactivity (VASP)", "setting": "[1]; [4]", "value": "83.1 [74.5–87.8] %"}, {"measurement": "Platelet reactivity (VASP)", "setting": "[1]; STEMI, 1 h after 180 mg ticagrelor LD", "value": "80.7 [40.4–90.5] %"}, {"measurement": "Platelet reactivity (VASP)", "setting": "[1]; STEMI, 3 h after 180 mg ticagrelor LD", "value": "45.0 [26.4–80.9] %"}, {"measurement": "Platelet reactivity (VASP)", "setting": "[1]; STEMI, 4 h after 180 mg ticagrelor LD", "value": "36.5 [22.2–69.7] %"}, {"measurement": "time to achieve platelet inhibition below the cut-off value for HPR (VASP)", "setting": "[1]; STEMI", "value": "2.5 [1.0–6.0] h"}, {"measurement": "Platelet reactivity (Multiplate)", "setting": "[2]; [3]", "value": "49.0 [21.0–86.0] U"}, {"measurement": "Platelet reactivity (Multiplate)", "setting": "[2]; NSTEMI, 2 h after 180 mg ticagrelor LD", "value": "18.0 [10.0–31.0] U"}, {"measurement": "time to achieve platelet inhibition below the cut-off value for HPR (Multiplate)", "setting": "[2]; NSTEMI", "value": "0.5 [0.5–2.0] h"}, {"measurement": "Platelet reactivity (Multiplate)", "setting": "[2]; [4]", "value": "88.0 [51.5–103.5] U"}, {"measurement": "Platelet reactivity (Multiplate)", "setting": "[2]; STEMI, 2 h after 180 mg ticagrelor LD", "value": "36.0 [22.0–52.5] U"}, {"measurement": "time to achieve platelet inhibition below the cut-off value for HPR (Multiplate)", "setting": "[2]; STEMI", "value": "2.0 [0.5–3.0] h"}]}
